For experiment [1], the system named is N2A cells. Nature of the experiment: Whole-cell mechanical stimulation (piezo-driven glass probe), MA currents in N2A cells. The format is cell-based, mouse. As to the method:
Cell culture and transient transfection. Neuro2A cells were grown in Eagle's Minimum Essential Medium containing 4.5 mg.ml^−1 glucose, 10% fetal bovine serum, 50 units.ml^−1 penicillin and 50 μg.ml^−1 streptomycin. C2C12 or Human Embryonic Kidney 293T (HEK293T) cells were grown in Dulbecco's Modified Eagle Medium containing 4.5 mg.ml^−1 glucose, 10% fetal bovine serum, 50 units.ml^−1 penicillin and 50 μg.ml^−1 streptomycin. Cells were plated onto 35 mm dishes or 12-mm round glass coverslips placed in 24-well plates and transfected using lipofectamine 2000 (Invitrogen) according to the manufacturer's instructions. For Piezo1 overexpression experiment, 500 to 1000 ng.ml^−1 of Piezo1-IRES-GFP or vector only were transfected, and cells were recorded 12-48 hours later. For Piezo2 overexpression experiments, 600 to 1000 ng.ml^−1 of mPiezo2 or vector were co-transfected with 300 ng.ml^−1 GFP to identify transfected cells and cells were recorded 12-48 hours later. […]
(§1) Patch-clamp experiments were performed in standard whole-cell or cell attached recordings using an Axopatch 200B amplifier (Axon Instruments). […] Voltages were not corrected for a liquid junction potential excepted for ion selectivity experiments were LJP were calculated using Clampex 10.1 software (Axon Instruments). […]

Experiment [2] concerns the target T1, Piezo1 (Mus musculus, UniProt E2JF22).
T1 construct: expressed in transfected cells; HEK293T for immunocytochemistry
Nature of the experiment: Block of Piezo1-induced MA currents in Piezo1-expressing cells (whole-cell). The settings on record: for Percent block of Piezo1-induced MA current: 30 μM. The format is cell-based. The method, then: (§2) Patch-clamp experiments were performed in standard whole-cell or cell attached recordings using an Axopatch 200B amplifier (Axon Instruments). Patch pipettes had resistance of 2-3 MΩ when filled with an internal solution consisting of (in mM) 133 CsCl, 10 HEPES, 5 EGTA, 1 CaCl2, 1 MgCl2, 4 MgATP, and 0.4 Na2GTP (pH adjusted to 7.3 with CsOH). The extracellular solution consisted of (in mM) 127-130 NaCl, 3 KCl, 1 MgCl2, 10 HEPES, 2.5 CaCl2, 10 glucose (pH adjusted to 7.3 with NaOH). NMDG solution consisted of (in mM) 150 NMDG, 10 HEPES (pH 7.5). For ion selectivity experiments, internal solution consisted of (in mM) 150 CsCl, 10 Hepes (pH 7.3 with CsOH), monovalent external solutions consisted of (in mM) 150 NaCl or KCl, 10 HEPES (pH 7.3 with NaOH or KOH) and divalent external solutions consisted of (in mM) 100 CaCl2 or MgCl2, 10 HEPES (pH 7.3 with CsOH). For cell attached recordings, pipette were filled with a solution consisting of (in mM) 130 NaCl, 5 KCl, 10 HEPES, 1 CaCl2, 1 MgCl2, 10 TEA-C1 (pH 7.3 with NaOH) and external solution used to zero the membrane potential consisted of (in mM) 140 KCl, 10 HEPES, 1 MgCl2, 10 glucose (pH 7.3 with KOH). All experiments were done at room temperature. Currents were sampled at 20 kHz and filtered at 2 kHz. Voltages were not corrected for a liquid junction potential excepted for ion selectivity experiments were LJP were calculated using Clampex 10.1 software (Axon Instruments). Leak currents before mechanical stimulations were subtracted off-line from the current traces. 10 mM ruthenium red stock solution was prepared in DMSO; 100 mM gadolinium stock solution, in water.
(§3) For whole-cell recordings mechanical stimulation was achieved using a fire-polished glass pipette (tip diameter 3-4 μm) positioned at an angle of 80° to the cell being recorded. Downward movement of the probe toward the cell was driven by a Clampex controlled piezo-electric crystal microstage (E625 LVPZT Controller/Amplifier; Physik Instrumente). […] Inward MA currents were recorded at a holding potential of −80 mV. […]

The target in experiment [3] is T2, Piezo2 (Mus musculus, UniProt Q8CD54).
T2 construct: expressed in transfected cells; host or cells: N2A (with Piezo1 siRNA) or HEK293T; A13: N2A
T2 sequence (Q8CD54 whole entry): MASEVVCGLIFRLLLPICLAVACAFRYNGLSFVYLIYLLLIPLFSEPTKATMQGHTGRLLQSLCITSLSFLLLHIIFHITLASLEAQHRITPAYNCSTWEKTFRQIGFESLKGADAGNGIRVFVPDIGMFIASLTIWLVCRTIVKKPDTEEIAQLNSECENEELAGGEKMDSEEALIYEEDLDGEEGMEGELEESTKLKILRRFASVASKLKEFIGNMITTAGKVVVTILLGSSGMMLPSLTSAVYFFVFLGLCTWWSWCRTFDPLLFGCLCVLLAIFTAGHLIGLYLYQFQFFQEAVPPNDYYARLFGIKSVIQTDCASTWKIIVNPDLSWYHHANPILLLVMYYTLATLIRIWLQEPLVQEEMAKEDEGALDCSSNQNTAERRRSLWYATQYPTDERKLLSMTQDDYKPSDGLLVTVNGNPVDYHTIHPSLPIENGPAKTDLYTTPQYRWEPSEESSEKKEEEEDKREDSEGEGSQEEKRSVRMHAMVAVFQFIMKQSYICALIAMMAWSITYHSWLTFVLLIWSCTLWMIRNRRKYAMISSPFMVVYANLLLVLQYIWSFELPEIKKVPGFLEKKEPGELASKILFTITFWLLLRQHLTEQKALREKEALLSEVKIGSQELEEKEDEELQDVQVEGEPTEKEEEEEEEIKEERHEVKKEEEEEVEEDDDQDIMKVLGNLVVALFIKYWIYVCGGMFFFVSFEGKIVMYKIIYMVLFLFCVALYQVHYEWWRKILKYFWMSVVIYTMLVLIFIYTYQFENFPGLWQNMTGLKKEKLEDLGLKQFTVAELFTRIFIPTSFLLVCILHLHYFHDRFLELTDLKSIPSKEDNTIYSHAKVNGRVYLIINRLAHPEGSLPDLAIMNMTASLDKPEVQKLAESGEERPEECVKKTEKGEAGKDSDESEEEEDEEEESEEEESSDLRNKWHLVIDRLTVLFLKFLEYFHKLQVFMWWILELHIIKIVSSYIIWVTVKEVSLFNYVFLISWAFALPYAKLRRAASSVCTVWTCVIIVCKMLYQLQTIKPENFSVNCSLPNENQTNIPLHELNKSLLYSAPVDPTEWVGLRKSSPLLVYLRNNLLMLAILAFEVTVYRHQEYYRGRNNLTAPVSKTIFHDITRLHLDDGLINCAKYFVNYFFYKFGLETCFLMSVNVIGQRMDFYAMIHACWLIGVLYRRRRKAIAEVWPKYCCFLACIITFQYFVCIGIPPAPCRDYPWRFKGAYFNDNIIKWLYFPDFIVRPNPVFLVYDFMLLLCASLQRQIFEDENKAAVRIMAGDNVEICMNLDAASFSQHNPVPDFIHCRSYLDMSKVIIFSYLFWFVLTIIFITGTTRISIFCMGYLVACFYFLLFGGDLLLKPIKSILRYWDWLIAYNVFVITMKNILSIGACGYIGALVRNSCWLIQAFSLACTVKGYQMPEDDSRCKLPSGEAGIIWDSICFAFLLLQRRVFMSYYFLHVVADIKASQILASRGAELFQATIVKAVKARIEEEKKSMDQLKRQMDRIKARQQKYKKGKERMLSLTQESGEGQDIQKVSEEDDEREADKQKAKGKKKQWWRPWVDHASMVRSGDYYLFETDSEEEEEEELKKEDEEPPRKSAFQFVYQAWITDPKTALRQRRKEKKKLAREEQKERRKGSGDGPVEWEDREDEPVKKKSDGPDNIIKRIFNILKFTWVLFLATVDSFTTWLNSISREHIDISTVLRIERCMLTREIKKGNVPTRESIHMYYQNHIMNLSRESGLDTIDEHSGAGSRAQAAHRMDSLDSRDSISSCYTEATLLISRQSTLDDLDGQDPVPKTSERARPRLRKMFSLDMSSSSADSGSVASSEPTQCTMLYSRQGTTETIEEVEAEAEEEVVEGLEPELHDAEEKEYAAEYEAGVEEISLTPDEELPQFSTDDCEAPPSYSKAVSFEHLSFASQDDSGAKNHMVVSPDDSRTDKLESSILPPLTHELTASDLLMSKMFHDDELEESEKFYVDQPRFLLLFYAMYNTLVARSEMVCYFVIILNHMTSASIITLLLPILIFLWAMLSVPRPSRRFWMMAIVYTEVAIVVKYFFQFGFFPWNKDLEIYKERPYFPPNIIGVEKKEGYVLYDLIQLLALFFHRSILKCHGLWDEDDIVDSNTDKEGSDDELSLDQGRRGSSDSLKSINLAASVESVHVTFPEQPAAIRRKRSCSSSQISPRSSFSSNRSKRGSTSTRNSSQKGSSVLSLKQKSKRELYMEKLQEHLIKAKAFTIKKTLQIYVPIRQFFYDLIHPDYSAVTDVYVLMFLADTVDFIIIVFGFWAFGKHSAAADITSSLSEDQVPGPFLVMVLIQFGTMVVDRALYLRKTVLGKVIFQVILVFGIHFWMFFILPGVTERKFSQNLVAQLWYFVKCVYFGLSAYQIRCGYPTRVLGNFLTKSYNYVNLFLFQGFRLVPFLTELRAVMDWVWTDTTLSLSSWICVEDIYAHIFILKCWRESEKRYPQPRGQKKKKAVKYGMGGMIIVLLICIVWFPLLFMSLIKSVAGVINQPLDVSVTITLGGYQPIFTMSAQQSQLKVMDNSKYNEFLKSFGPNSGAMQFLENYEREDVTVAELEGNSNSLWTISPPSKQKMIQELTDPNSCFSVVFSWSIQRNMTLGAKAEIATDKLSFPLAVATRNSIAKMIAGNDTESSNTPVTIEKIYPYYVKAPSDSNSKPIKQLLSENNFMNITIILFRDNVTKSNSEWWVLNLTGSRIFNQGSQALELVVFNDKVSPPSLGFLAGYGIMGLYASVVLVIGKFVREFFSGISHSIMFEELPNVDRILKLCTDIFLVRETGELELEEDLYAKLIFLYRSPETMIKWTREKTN
The experiment can be described thus: Block of Piezo2-induced MA currents in Piezo2-expressing cells (whole-cell). The format is cell-based. The following applies: for Percent block of Piezo2-induced MA currents: 30 μM. The method, then: as §2, §3

Experiment [4] concerns C2C12 cells. Nature of the experiment: Whole-cell mechanical stimulation, MA currents in C2C12 cells. The format is cell-based, mouse. The following applies: NMDG-chloride external solution, data not shown. The method, then: Cell culture and transient transfection. Neuro2A cells were grown in Eagle's Minimum Essential Medium containing 4.5 mg.ml^−1 glucose, 10% fetal bovine serum, 50 units.ml^−1 penicillin and 50 μg.ml^−1 streptomycin. C2C12 or Human Embryonic Kidney 293T (HEK293T) cells were grown in Dulbecco's Modified Eagle Medium containing 4.5 mg.ml^−1 glucose, 10% fetal bovine serum, 50 units.ml^−1 penicillin and 50 μg.ml^−1 streptomycin. Cells were plated onto 35 mm dishes or 12-mm round glass coverslips placed in 24-well plates and transfected using lipofectamine 2000 (Invitrogen) according to the manufacturer's instructions. For Piezo1 overexpression experiment, 500 to 1000 ng.ml^−1 of Piezo1-IRES-GFP or vector only were transfected, and cells were recorded 12-48 hours later. For Piezo2 overexpression experiments, 600 to 1000 ng.ml^−1 of mPiezo2 or vector were co-transfected with 300 ng.ml^−1 GFP to identify transfected cells and cells were recorded 12-48 hours later.
as §1

In the case of `O=C(O)CN(CCOCCOCCN(CC(=O)O)CC(=O)O)CC(=O)O` [EGTA], in experiment [1] (extracellular perfusion of divalent-free 5 mM EGTA solution for 30-60 min), the “Effect on MA currents” value is on record as “did not suppress”.

In the case of `[Gd]` [gadolinium], the “Percent block of Piezo1-induced MA current” value in experiment [2] is 84.3±3.8%. For the same molecule, in experiment [3], the “Percent block of Piezo2-induced MA currents” value amounted to 85.0±3.7%.

Regarding `N.N.N.N.N.N.N.N.N.N.N.N.N.N.[Cl-].[Cl-].[Cl-].[Cl-].[Cl-].[Cl-].[O-2].[O-2].[Ru+3].[Ru+3].[Ru+4]` [ruthenium red], in experiment [2], the “Percent block of Piezo1-induced MA current” value is listed as 74.6±2.5%. Moreover, the “Percent block of Piezo2-induced MA currents” value in experiment [3] was determined as 79.2±4.2%.

In the case of `CNC[C@H](O)[C@@H](O)[C@H](O)[C@H](O)CO` [NMDG], the “Effect on inward endogenous MA currents” value in experiment [1] (NMDG-chloride external solution, data not shown) was “suppressed”; in experiment [4], “suppressed”. For the same molecule, in experiment [2] (NMDG substituted in extracellular bathing solution (150 mM NMDG-Cl)), the “Effect on inward Piezo1-induced MA currents” value is listed as “suppressed”. Also, the “Effect on Piezo2-induced currents” value in experiment [3] (perfusion with NMDG-Cl solution) is reported as “suppressed”.

The values above are taken from US20130156762A1, “Mechanically-Activated Cation Channels” (The Scripps Research Institute, priority 2010, published 2013).
